Results on 14 molecules are retold here after patent publication US10494363B2, “Non-steroidal glucocorticoid receptor modulators for local drug delivery” (LEO PHARMA A/S, priority 2015, dated 2019).

Series [1] concerns the target T1, glucocorticoid receptor (GR), recombinant full-length receptor protein (Homo sapiens, UniProt P04150).
T1 construct: 4 nM recombinant, full-length receptor protein was incubated with increasing concentrations of GR ligand; purchased Life Technologies A-15897
T1 sequence (P04150 1-777): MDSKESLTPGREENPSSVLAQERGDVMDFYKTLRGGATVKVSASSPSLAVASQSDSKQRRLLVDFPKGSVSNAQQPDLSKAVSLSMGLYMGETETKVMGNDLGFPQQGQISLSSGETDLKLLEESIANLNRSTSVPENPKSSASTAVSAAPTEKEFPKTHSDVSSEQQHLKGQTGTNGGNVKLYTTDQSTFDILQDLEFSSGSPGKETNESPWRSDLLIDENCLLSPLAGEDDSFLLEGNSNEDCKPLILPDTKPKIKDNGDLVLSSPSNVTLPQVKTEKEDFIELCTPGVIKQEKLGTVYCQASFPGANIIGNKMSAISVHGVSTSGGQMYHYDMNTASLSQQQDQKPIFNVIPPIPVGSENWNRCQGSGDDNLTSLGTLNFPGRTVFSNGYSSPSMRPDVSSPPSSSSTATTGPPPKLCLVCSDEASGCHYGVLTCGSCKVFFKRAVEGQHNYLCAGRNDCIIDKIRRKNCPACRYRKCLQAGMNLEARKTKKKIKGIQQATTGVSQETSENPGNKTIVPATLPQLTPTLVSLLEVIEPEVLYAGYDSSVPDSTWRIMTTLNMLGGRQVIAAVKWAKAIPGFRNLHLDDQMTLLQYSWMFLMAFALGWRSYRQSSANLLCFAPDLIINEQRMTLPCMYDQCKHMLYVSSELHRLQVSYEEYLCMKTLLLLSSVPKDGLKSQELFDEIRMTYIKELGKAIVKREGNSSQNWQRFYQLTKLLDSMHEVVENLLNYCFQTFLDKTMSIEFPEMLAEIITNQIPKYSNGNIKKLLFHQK
The series can be described thus: Glucocorticoid receptor binding assay (fluorescence polarization kit). As to conditions: 4 nM receptor, 2.5 nM Fluormone GS1 tracer, 2h room temperature, read-out: GR binding ABS IC50. The procedure: Test compounds were diluted in DMSO over seven orders of magnitude, further diluted in assay buffer and distributed into 384-well plates. The sensitivity limit of this assay was 2-4 nM.
Data were processed by sigmoidal curve fitting.
Absolute (Abs) IC50 and Emax were determined from the curve fits.
On the technique in general: Polarisation of emitted light reports the rotation of a fluorescent probe.

Series [2] in a line: Human liver microsomes (HLM) assay. As to conditions: hepatic extraction ratio; 0.5 μM compound, 0.5 mg/mL microsomes, NADPH, 37° C. Format: in vitro ADME. As to the method:
Incubations of test compounds in DMSO, diluted with phosphate buffer, pH 7.4, at 0.5 μM were carried out with human liver microsomes (0.5 mg/mL). The percentage of organic solvent in the incubations was 1%. The human liver microsomal suspension in phosphate buffer was mixed with NADPH (1 mM) and preheated to 37° C. before test compound was added. Aliquots were taken at 0, 5, 10, 20 and 30 minutes, and reactions were terminated by addition of methanol containing analytical internal standard (IS).
The results were expressed as apparent clearance (Clapp) (mL/min/kg) and hepatic extraction ratio (Eh) (%) calculated from the rate constant (k) (min^−1) of test compound depletion.

For series [3], the system named is TNF alpha release from human PBMCs. The experiment in a line: Inhibition of TNF alpha release from human PBMCs. Format: cell-based. As to conditions: PBMC, LPS 1 μg/ml, 18 hours, AlphaLISA. A digest of the protocol: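 Fresh or thawed PBMCs in serum-free medium with 0.5% HSA, stimulated with 1 μg/ml LPS plus titrated compound for 18 h at 37° C. TNF-a in supernatant by AlphaLISA; window set with a reference PDE4 inhibitor at 100×IC50. EC50 and Emax from sigmoidal fits.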
Background: Bead proximity is the source of the signal in Alpha formats.

The term IC50 denotes the concentration that gives 50% inhibition. In general, EC50 refers to the concentration giving half of the maximal effect. A higher EC50 goes with lower potency in that assay.

The structures appear in SMILES notation. Where only a bound is given, the exact number is not on record here.

Regarding `CC[C@@H](O)C(=O)N[C@@H](C)[C@H](Oc1ccc(C(=O)N[C@H]2CCCN(C(=O)[C@H]3COC(=O)C3)C2)nc1)c1ccc(C2CC2)cc1` [Compound 13, 5-[(1R,2S)-1-(4-cyclopropylphenyl)-2-[[(2R)-2-hydroxybutanoyl]amino]propoxy]-N-[(3S)-1-[(3R)-5-oxotetrahydrofuran-3-carbonyl]-3-piperidyl]pyridine-2-carboxamide], in series [1], the IC50 fell in the range of 100 to 300 nM. In addition, the “HLM assay Eh (%)” value in series [2] is “* (extraction ratio (Eh)>90%)”. Moreover, in series [3], the EC50 was below 100 nM.
In the same order, the values of `COCC(=O)N[C@@H](C)[C@H](Oc1ccc(C(=O)N[C@H]2CCCN(C(=O)[C@H]3COC(=O)C3)C2)nc1)c1ccc(C2CC2)cc1` [Compound 14, 5-[(1R,2S)-1-(4-cyclopropylphenyl)-2-[(2-methoxyacetyl)amino]propoxy]-N-[(3S)-1-[(3R)-5-oxotetrahydrofuran-3-carbonyl]-3-piperidyl]pyridine-2-carboxamide] are 100 to 300 nM, “* (extraction ratio (Eh)>90%)” and below 100 nM.
For the molecule `C[C@H](NC(=O)C(C)(C)O)[C@H](Oc1ccc(C(=O)N[C@H]2CCCN(C(=O)[C@H]3COC(=O)C3)C2)nc1)c1ccc(C2CC2)cc1` [Compound 15, 5-[(1R,2S)-1-(4-cyclopropylphenyl)-2-[(2-hydroxy-2-methyl-propanoyl)amino]propoxy]-N-[(3S)-1-[(3R)-5-oxotetrahydrofuran-3-carbonyl]-3-piperidyl]pyridine-2-carboxamide], the IC50 in series [1] was above 300 nM. For the same molecule, the “HLM assay Eh (%)” value in series [2] is “** (50%<extraction ratio (Eh)<90%)”. Moreover, the half-maximal effective concentration (EC50) in series [3] was below 100 nM.
`C[C@H](NC(=O)CCO)[C@H](Oc1ccc(C(=O)N[C@H]2CCCN(C(=O)[C@H]3COC(=O)C3)C2)nc1)c1ccc(C2CC2)cc1` [Compound 16, 5-[(1R,2S)-1-(4-cyclopropylphenyl)-2-(3-hydroxypropanoylamino)propoxy]-N-[(3S)-1-[(3R)-5-oxotetrahydrofuran-3-carbonyl]-3-piperidyl]pyridine-2-carboxamide]: the IC50 in series [1] is above 300 nM. The “HLM assay Eh (%)” value in series [2] is reported as “* (extraction ratio (Eh)>90%)”. For the same molecule, the EC50 in series [3] was below 100 nM.
As to `C[C@H](NC(=O)C1(O)CCC1)[C@H](Oc1ccc(C(=O)N[C@H]2CCCN(C(=O)[C@H]3COC(=O)C3)C2)nc1)c1ccc(C2CC2)cc1` [Compound 17, 5-[(1R,2S)-1-(4-cyclopropylphenyl)-2-[(1-hydroxycyclobutanecarbonyl)amino]propoxy]-N-[(3S)-1-[(3R)-5-oxotetrahydrofuran-3-carbonyl]-3-piperidyl]pyridine-2-carboxamide], the half-inhibitory concentration (IC50) in series [1] was 100 to 300 nM. The “HLM assay Eh (%)” value in series [2] is reported as “* (extraction ratio (Eh)>90%)”. The EC50 in series [3] is below 100 nM.
In the same order, the values of `C[C@H](NC(=O)C1(O)CC1)[C@H](Oc1ccc(C(=O)N[C@H]2CCCN(C(=O)[C@H]3COC(=O)C3)C2)nc1)c1ccc(C2CC2)cc1` [Compound 18, 5-[(1R,2S)-1-(4-cyclopropylphenyl)-2-[(1-hydroxycyclopropanecarbonyl)amino]propoxy]-N-[(3S)-1-[(3R)-5-oxotetrahydrofuran-3-carbonyl]-3-piperidyl]pyridine-2-carboxamide] are 100 to 300 nM, “* (extraction ratio (Eh)>90%)” and below 100 nM.
In the same order, the values of `C[C@H](NC(=O)c1cocn1)[C@H](Oc1ccc(C(=O)N[C@H]2CCCN(C(=O)[C@H]3COC(=O)C3)C2)nc1)c1ccc(C2CC2)cc1` [Compound 19, N-[(1S,2R)-2-(4-cyclopropylphenyl)-1-methyl-2-[[6-[[(3S)-1-[(3R)-5-oxotetrahydrofuran-3-carbonyl]-3-piperidyl]carbamoyl]-3-pyridyl]oxy]ethyl]oxazole-4-carboxamide] are below 100 nM, “* (extraction ratio (Eh)>90%)” and below 100 nM.
On to `C[C@H](NC(=O)[C@@H]1CCCO1)[C@H](Oc1ccc(C(=O)N[C@H]2CCCN(C(=O)[C@H]3COC(=O)C3)C2)nc1)c1ccc(C2CC2)cc1` [Compound 20, 5-[(1R,2S)-1-(4-cyclopropylphenyl)-2-[[(2S)-tetrahydrofuran-2-carbonyl]amino]propoxy]-N-[(3S)-1-[(3R)-5-oxotetrahydrofuran-3-carbonyl]-3-piperidyl]pyridine-2-carboxamide], for which the IC50 in series [1] lay in the range of 100 to 300 nM. Also, the “HLM assay Eh (%)” value in series [2] is given as “* (extraction ratio (Eh)>90%)”. Moreover, the EC50 in series [3] was below 100 nM.
In the same order, the values of `C[C@H](NC(=O)[C@H]1CCCO1)[C@H](Oc1ccc(C(=O)N[C@H]2CCCN(C(=O)[C@H]3COC(=O)C3)C2)nc1)c1ccc(C2CC2)cc1` [Compound 22, 5-[(1R,2S)-1-(4-cyclopropylphenyl)-2-[[(2R)-tetrahydrofuran-2-carbonyl]amino]propoxy]-N-[(3S)-1-[(3R)-5-oxotetrahydrofuran-3-carbonyl]-3-piperidyl]pyridine-2-carboxamide] are below 100 nM, “* (extraction ratio (Eh)>90%)” and below 100 nM.
In the same order, the values of `C[C@H](NC(=O)c1ccon1)[C@H](Oc1ccc(C(=O)N[C@H]2CCCN(C(=O)[C@H]3COC(=O)C3)C2)nc1)c1ccc(C2CC2)cc1` [Compound 23, N-[(1S,2R)-2-(4-cyclopropylphenyl)-1-methyl-2-[[6-[[(3S)-1-[(3R)-5-oxotetrahydrofuran-3-carbonyl]-3-piperidyl]carbamoyl]-3-pyridyl]oxy]ethyl]isoxazole-3-carboxamide] are below 100 nM, “* (extraction ratio (Eh)>90%)” and below 100 nM.
Turning to `C[C@H](NC(=O)C(F)(F)F)[C@H](Oc1ccc(C(=O)O[C@H]2CCCN(C(=O)[C@H]3COC(=O)C3)C2)cc1)c1ccc(C2CC2)cc1` [Compound 24, [(3S)-1-[(3R)-5-oxotetrahydrofuran-3-carbonyl]-3-piperidyl] 4-[(1R,2S)-1-(4-cyclopropylphenyl)-2-[(2,2,2-trifluoroacetyl)amino]propoxy]benzoate], the IC50 in series [1] is below 100 nM. Besides, the “HLM assay Eh (%)” value in series [2] was “* (extraction ratio (Eh)>90%)”. This molecule also had an EC50 in series [3] below 100 nM.
In the case of `C[C@H](NC(=O)c1cnsn1)[C@H](Oc1ccc(C(=O)O[C@H]2CCCN(C(=O)[C@H]3COC(=O)C3)C2)cc1)c1ccc(C2CC2)cc1` [Compound 25, [(3S)-1-[(3R)-5-oxotetrahydrofuran-3-carbonyl]-3-piperidyl] 4-[(1R,2S)-1-(4-cyclopropylphenyl)-2-(1,2,5-thiadiazole-3-carbonylamino)propoxy]benzoate], the IC50 in series [1] was below 100 nM. Moreover, the “HLM assay Eh (%)” value in series [2] is “* (extraction ratio (Eh)>90%)”. For the same molecule, in series [3], the EC50 is below 100 nM.
On to `Cc1cnc(C(=O)N[C@@H](C)[C@H](Oc2ccc(C(=O)O[C@H]3CCCN(C(=O)[C@H]4COC(=O)C4)C3)cc2)c2ccc(C3CC3)cc2)s1` [Compound 26, [(3S)-1-[(3R)-5-oxotetrahydrofuran-3-carbonyl]-3-piperidyl] 4-[(1R,2S)-1-(4-cyclopropylphenyl)-2-[(5-methylthiazole-2-carbonyl)amino]propoxy]benzoate], for which, in series [1], the IC50 is below 100 nM. Moreover, the “HLM assay Eh (%)” value in series [2] is given as “* (extraction ratio (Eh)>90%)”. The molecule also yielded an EC50 in series [3] below 100 nM.
Take `Cc1nonc1C(=O)N[C@@H](C)[C@H](Oc1ccc(C(=O)O[C@H]2CCCN(C(=O)[C@H]3COC(=O)C3)C2)cc1)c1ccc(C2CC2)cc1` [Compound 28, [(3S)-1-[(3R)-5-oxotetrahydrofuran-3-carbonyl]-3-piperidyl] 4-[(1R,2S)-1-(4-cyclopropylphenyl)-2-[(4-methyl-1,2,5-oxadiazole-3-carbonyl)amino]propoxy]benzoate]: in series [1], the IC50 is below 100 nM. In series [2], the “HLM assay Eh (%)” value is given as “* (extraction ratio (Eh)>90%)”. In series [3], this molecule yielded an EC50 below 100 nM.
